# Reference: article PMC12641067 (Clinical Pharmacology and Therapeutics, 2025)
# Where “and” joins values, the source holds several entries; their conditions need not be identical. Equal values may be shown once. Where a name gives a salt, the structure may show the parent alone. Read-outs that look alike come from different tables or passages of the source.
# Experiments:
# [1] = cited from earlier work
# [2] = cited from earlier work; remark: listed apart in the source
# [3] = human, in vivo; cited from earlier work
# [4] = Plasma baseline concentration of bile acid biomarkers in clinical studies; assay type: in vivo, human; settings: Study #3 (unpublished data); average concentration 0 to 24 hours, no inhibitor
# Description: (§1) Individual plasma and urine data of GCDCA‐S in healthy subjects were obtained from three clinical studies. Tatosian et al.[18] (study #1) consisted of two occasions: on both occasions, a microdose probe drug cocktail for multiple clinically relevant transporters was administered, with a single oral dose of 600 mg rifampicin co‐administered on the second occasion (n = 6; 3 males, 3 females). Willemin et al.[22] (study #2) was a two‐phase, cross‐over study with a 21‐day washout period between the two phases. […] Study #3 consists of unpublished data from the same study design as reported by Willemin et al. (n = 12; 12 males).[22]
# Details of the clinical studies are in Table S1 . […] Simulations were conducted in agreement with the reported study designs. The median (50th percentile) of the predicted concentrations, along with the 90% prediction interval (5th and 95th percentiles), was plotted and compared against the observed data.
# Table S1. […]
# Cbaseline, GCDCA-S plasma baseline concentration in the absence of inhibitors. a Plasma concentration of subjects with SLCO1B1 c.521TT genotype were used for model verification. b In both occasions, Letermovir 480mg was administered, and it has been reported that single-dose Letermovir led to small increases in GCDCA-S concentrations vs. predose levels. c Calculated based on the reported plasma AUC0-24h.
# [5] = Population PK turnover model of GCDCA-S (plasma and urine data); assay type: in vivo, human
# Description: as §1
# (§2) Models were evaluated using visual predictive check (VPC) plots, goodness‐of‐fit (GOF) plots, parameter uncertainty, and changes in objective function. Model visualization and simulations were conducted in MATLAB 2024a (MathWorks, Natick, MA, USA) and Graph Pad Prism 10.2.2 (GraphPad software, La Jolla, CA, USA).
# (§3) The structural model for rifampicin was based on our previous report,[33] and represents a one‐compartment model with zero‐order absorption and linear elimination.
# Different functions for evaluating diurnal fluctuation (e.g., Bateman, Power function) were investigated and applied to the synthesis rate in the GCDCA‐S model.
# (§4) The models for rifampicin, probenecid, and GCDCA‐S incorporated both inter‐individual variability for a number of model parameters (assuming log‐normal distribution) and residual unexplained variability (using a combination of proportional and additive error models).
# [6] = Synthesis rate of precursor bile acids and inferred GCDCA-S ksyn; set-up: species or system human
# Text: Verification of GCDCA-S ksyn estimated in this study
# Literature data on the SULT2A1-mediated sulfation rate of GCDCA were not available. To evaluate the validity of GCDCA-S ksyn estimated by the POPPK model, GCDCA-S ksyn was assumed to be constrained by the synthesis rate of its precursor bile acids, and an inference was made based on the reported ksyn value of the corresponding precursors (CDCA and GCDCA).
# In the absence of an inhibitor, ksyn of bile acids in the turnover model is represented by Equation 11.
# Under steady-state conditions (where dC/dt=0), and given that the values of CLR of GCDCA-S and its corresponding precursors are relatively small compared to their CLh, ksyn of bile acids is expressed by Equation 12.10,11 It has been reported that the biliary excretion of bile acid sulfates is slower than that of their unsulfated forms,10,12 and assuming CLh,GCDCA-S < CLh,precursors, GCDCA-S ksyn was inferred, as […]
# dt = [ksyn − (Cbile acid × CLh + Cbile acid × CLR)] × Vc (Eq.11)
# ksyn = Cbile acid × CLh (Eq.12) where C (µM) is plasma concentration, ksyn (µmol/h) is the zero-order synthesis rate, CLh (L/h) is hepatic clearance, CLR (L/h) is renal clearance, VC (L) is the volume of distribution.
# Table S5. GCDCA-S ksyn inferred from the ksyn of its corresponding precursors Biomarker Plasma baseline (nM) Denovo ksyn (µmol/h)
# Reported value Ref Reported value Ref Notes
# Biomarker Plasma baseline (nM) Inferred ksyn (µmol/h)
# < 3.0 Based on information 1 […]
# < 2.2 Based on information 3 aAveraged Cmean value of the baseline and control groups. bSynthesis rate of unconjugated chenodeoxycholic acid. cAveraged synthesis rate of chenodeoxycholic acid reported in six studies. dSynthesis rate of chenodeoxycholic acid-glycine.
# [7] = GCDCA-S CLh and fe inferred from other reported clinical DDI studies; assay type: in vivo, human
# Description: Verification of GCDCA-S fe estimated in this study
# The validity of GCDCA-S CLh and renal excretion fraction (fe) estimated in this study was evaluated by incorporating the GCDCA-S mean plasma concentration profile in other reported clinical DDI studies into the developed POPPK models. In the absence of inhibitors, under steady-state conditions (where dC/dt=0), GCDCA-S ksyn is expressed as shown in Equation 13. In the presence of rifampicin, at t=Tmax (where dC/dt=0), GCDCA-S ksyn is expressed as shown in Equation 14. By solving equation 13 and 14, CLh can be derived as shown in Equation 15. The CLh and fe values inferred from data obtained in each […]
# ksyn = Cbaseline × CLh + Cbaseline × CLR (Eq.13)
# k = C × CLh + C × CL (Eq.14) […]
# CL = CL × Cmax−Cbaseline > CL × Cmax−Cbaseline (Eq.15)
# h R Cbaseline − Cmax × 1 R Cbaseline where Cbaseline (µM) is plasma baseline concentration, Cmax (µM) is maximum plasma concentration, ksyn (µmol/h) is the zero-order synthesis rate, CLh (L/h) is hepatic clearance, CLR (L/h) is renal clearance, Cu,RIF (µM) is unbound plasma concentration of rifampicin, Ki,u,OATP1B3 (µM) is unbound inhibition constant against OATP1B3 for rifampicin.
# Table S6. GCDCA-S CLh and fe inferred from other reported clinical DDI studies Reported values Inferred values Ref […]
# Cbaseline, plasma baseline concentration of GCDCA-S; Cmax, maximum plasma concentration of GCDCA-S; fe, fraction excreted in urine of GCDCA-S; CLh, hepatic clearance of GCDCA-S; CLR, renal clearance […]
# a Average concentration from 0 to 24hours. b The CLR value reported by Willemin et al.17 was used for calculation. Even when using the reported CLR values from other studies, the corresponding increase in CLh ensures that the estimated fe value in this calculation remains unchanged.
# [8] = baseline and interaction profile after rifampicin administration; cited from earlier work
# [9] = monkey, in vivo; cited from earlier work
# [10] = Population PK model of probenecid (plasma data); assay type: in vivo, human; settings: population estimate (RSE%)
# Description: as §1, §2, §3, §4
# [11] = system: OATP1B transporters; settings: in vitro; cited from earlier work
# [12] = set-up: method as in PMID 19131563, PMID 1150035, PMID 955496, PMID 34686523; settings: healthy human volunteers; cited from earlier work
# [13] = information 2 (CDCA, average of six studies) and 3 (chenodeoxycholic acid-glycine)
# [14] = averaged Cmean value of the baseline and control groups
# [15] = final model (without sex effect), population estimate (RSE%)
# [16] = model with sex effect, population estimate (RSE%)
compound,measurement,setting,value
"C[C@H](CCC(=O)O)[C@H]1CC[C@H]2[C@@H]3[C@H](O)C[C@@H]4C[C@H](O)CC[C@]4(C)[C@H]3CC[C@]12C [CDCA, chenodeoxycholic acid]",Denovo ksyn,[1]; [13],17 µmol/h
same,Denovo ksyn,[1]; synthesis rate of unconjugated chenodeoxycholic acid (information 1),18 µmol/h
same,Plasma baseline,[2]; [14],510 nM
"CC(CCC(=O)NCC(=O)O)C1CCC2C3C(O)CC4CC(O)CCC4(C)C3CCC12C (centres unmarked) [GCDCA, glycochenodeoxycholic acid]",Denovo ksyn,[1]; [13],14 µmol/h
same,Plasma baseline,[2]; [14],540 nM
"C[C@H](CCC(=O)NCC(=O)O)[C@H]1CC[C@H]2[C@@H]3[C@H](O)C[C@@H]4C[C@H](OS(=O)(=O)O)CC[C@]4(C)[C@H]3CC[C@]12C [GCDCA‐S, Glycochenodeoxycholic acid 3‐O‐sulfate]",CLR,[3],0.37 L/h
same,Cbaseline,[4],87 nM
same,fraction excreted in urine (f e),[5]; estimated from POP-PK model,< 5%
same,"V c,GCDCA–S","[5]; final model (without sex effect), fixed at value initially estimated from the POP-PK model",4.8 L and 4.8 (FIXED) L
same,"CL h,GCDCA–S",[5]; [15],15 (13) L/h
same,ksyn,[5]; [15],1.0 (18) μmol/h
same,biliary excretion as share of elimination,[5]; from POP-PK model,~ 95% and > 95%
same,"Vc, GCDCAS","[5]; model with sex effect, fixed",4.8 L
same,"CLR, GCDCAS",[5]; [16],0.31 (8) L/h
same,"CLh, GCDCAS",[5]; [16],14 (13) L/h
same,COVSEX (fractional change in ksyn in women relative to men),[5]; [16],0.065 (404)
same,ksyn,[5]; [16],1.0 (18) μmol/h
same,Inferred ksyn,[6]; based on information 1,< 3.0 µmol/h
same,Inferred ksyn,[6]; based on information 2,< 2.8 µmol/h
same,Inferred ksyn,[6]; based on information 3,< 2.2 µmol/h
same,fe (inferred),[7]; from data of ref 2,< 6.6%
same,fe (inferred),[7]; from data of ref 3,< 6.9%
same,fe (inferred),[7]; from data of ref 4,< 3.3%
same,fe (inferred),[7]; from data of ref 16,< 3.1%
same,"difference in plasma concentrations, chronic kidney disease patients relative to healthy individuals",[8],no significant difference
same,fraction excreted in urine (f e),[9],< 1%
same,Plasma baseline,"[2]; human, in vivo",85 nM
"CCCN(CCC)S(=O)(=O)c1ccc(C(=O)O)cc1 [PROB, probenecid]",clearance,"[10]; both sexes, human, plasma, oral, 500 mg",15.8 mL/min
same,V PROB,[10],17 (10) L
same,ka PROB,[10]; 500 mg oral approx. every 6 h,1.1 (37) /h
same,inhibition of OATP1B transporters,[11],weakly inhibits
C[C@H](CCC(=O)O)[C@H]1CC[C@H]2[C@@H]3CC[C@@H]4C[C@H](OS(=O)(=O)O)CC[C@]4(C)[C@H]3CC[C@]12C [lithocholic acid sulfate],fraction excreted in urine (f e),[12],< 5%
